Values of other authors as cited in US8557301B2, “Oral rehydration composition” (Drip Drop, Inc., priority 2011, dated 2013).

Tested on: net sodium and water absorption

Structure (SMILES): O=C(CO)[C@@H](O)[C@H](O)[C@H](O)CO [fructose]
- effect on potassium transport: stimulates potassium absorption
- net sodium and water absorption stimulated, as much as glucose (relative to glucose): 66-100%
